Data published in ChEMBL document CHEMBL5104193, “Hypoxia-Activated Prodrugs with Dual COX-2/CA Inhibitory Effects on Attenuating Cardiac Inflammation under Hypoxia” (J Med Chem, 2022).
Active and inactive are the calls of the source. The rule behind the calls is not given here.

What was measured:
[1] = system: H9c2; test: Protection against LPS/ hypoxia induced cell injury in rat H9c2 cells assessed as recovery of cell viability at 1 to 10 uM by CCK-8 assay; type: functional, cell-based; conditions: dose 1-10 µM
[2] = system: H9c2; test: Anti-inflammatory activity in LPS/hypoxia induced rat H9c2 cells assessed as reduction of IL-1 beta protein expression at 10 uM by Western blot analysis; type: functional, cell-based
[3] = system: H9c2; test: Anti-inflammatory activity in LPS/hypoxia induced rat H9c2 cells assessed as increase in VEGF expression at 10 uM in presence of 2-(4-(5-oxo-5-((5-sulfamoyl-1,3,4-thiadiazol-2-yl)amino)pentyl)-1H-1,2,3-triazol-1-yl)acetic acid by Western blot analysis; type: functional, cell-based
[4] = system: H9c2; test: Protection against LPS/hypoxia induced cell injury in rat H9c2 cells assessed as recovery of cell viability at 10 uM by CCK-8 assay; type: functional, cell-based
[5] = system: H9c2; test: Reversal of LPS/hypoxia induced mitochondrial membrane potential loss in rat H9c2 cells in presence of 2-(4-(5-oxo-5-((5-sulfamoyl-1,3,4-thiadiazol-2-yl)amino)pentyl)-1H-1,2,3-triazol-1-yl)acetic acid by JC-1 dye based flow cytometry analysis; type: functional, cell-based
[6] = system: H9c2; test: Reversal of ATP level in LPS/hypoxia induced rat H9c2 cells in presence of 2-(4-(5-oxo-5-((5-sulfamoyl-1,3,4-thiadiazol-2-yl)amino)pentyl)-1H-1,2,3-triazol-1-yl)acetic acid by multimode plate reader analysis (reference value: 21.37 nmol/mg); type: functional
[7] = system: H9c2; test: Inhibition of intracellular ROS level in LPS/hypoxia induced rat H9c2 cells in presence of 2-(4-(5-oxo-5-((5-sulfamoyl-1,3,4-thiadiazol-2-yl)amino)pentyl)-1H-1,2,3-triazol-1-yl)acetic acid by DCFH-DA probe based fluorescence confocal microscopy analysis; type: functional, cell-based
[8] = system: H9c2; test: Inhibition of intracellular ROS level in LPS/hypoxia induced rat H9c2 cells in presence of 2-(4-(5-oxo-5-((5-sulfamoyl-1,3,4-thiadiazol-2-yl)amino)pentyl)-1H-1,2,3-triazol-1-yl)acetic acid and Na2WO4 by DCFH-DA probe based fluorescence confocal microscopy analysis; type: functional, cell-based
[9] = system: Rattus norvegicus; test: (§1) Antiinflammatory activity against LPS/talc powder induced pericarditic Wistar rat assessed as reduction in U wave flattening at 20 mg/kg, ip pretreated for 2 hrs followed by LPS/tal powder stimulation measured after 48 hrs in presence of 2-(4-(5-oxo-5-((5-sulfamoyl-1,3,4-thiadiazol-2-yl)amino)pentyl)-1H-1,2,3-triazol-1-yl)acetic acid by ECG analysis; type: functional, organism-based; conditions: time 50.0 hrs
[10] = system: Rattus norvegicus; test: as §1, with “heart swelling” for “U wave flattening”, “acid” for “acid by ECG analysis”; type: functional, organism-based; conditions: time 50.0 hrs
[11] = Toxicity in Wistar rat assessed as change in BUN level in presence of 2-(4-(5-oxo-5-((5-sulfamoyl-1,3,4-thiadiazol-2-yl)amino)pentyl)-1H-1,2,3-triazol-1-yl)acetic acid; conditions: in vivo

COc1ccc2c(c1)c(CC(=O)O)c(C)n2C(=O)c1ccc(Cl)cc1 [INDOMETHACIN]
Activity [1]: Active | Activity [2]: Active | Activity [3]: Active | Activity [4]: Active | Activity [5]: Active | Activity [6]: 47.52 nmol/mg | inhibition [7]: Active | inhibition [8]: Active | Activity [9]: Active | Activity [10]: Active | Activity [11]: Toxic
